Measured values taken from patent US8916593B2, “Alkoxy-substituted 2-aminopyridines as ALK inhibitors” (Pfizer Inc., priority 2010, dated 2014).

Legend:
[1] = biological target: EML4-ALK wt v1 in NIH-3T3 cells (Homo sapiens, UniProt Q9UM73)
[2] = biological target: T1, human recombinant wild-type ALK kinase domain (amino acids 1093-1411) (Homo sapiens, UniProt Q9UM73); experiment: ALK enzyme assay 2 (microfluidic mobility shift assay); type: biochemical;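 further: kinase reaction run 1 h at room temperature, conversion quantified by electrophoretic separation of fluorescent peptide substrate from phosphorylated product, about 15-20% turnover without inhibitor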
T1 construct: ALK kinase domain (amino acids 1093-1411); made in house
T1 sequence (Q9UM73 1093-1411): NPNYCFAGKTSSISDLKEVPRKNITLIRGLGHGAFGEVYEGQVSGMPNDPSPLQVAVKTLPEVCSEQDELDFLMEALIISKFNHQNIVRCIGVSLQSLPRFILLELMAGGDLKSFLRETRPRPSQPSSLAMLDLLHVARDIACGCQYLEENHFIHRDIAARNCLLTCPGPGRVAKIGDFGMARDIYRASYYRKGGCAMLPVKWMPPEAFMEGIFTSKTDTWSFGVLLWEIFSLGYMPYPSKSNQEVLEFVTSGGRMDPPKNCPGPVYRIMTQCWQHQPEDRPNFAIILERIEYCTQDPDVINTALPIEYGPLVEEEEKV
Method: The reactions were incubated for 1 h at room temperature, stopped by the addition of 0.1 M EDTA, pH 8, and the extent of reactions (˜15-20% conversion with no inhibitor) was determined after electrophoretic separation of the fluorescently labeled peptide substrate and phosphorylated product on an LabChip EZ Reader II (Caliper Life Sciences, Hopkinton, Mass.).

Sequence of EML4-ALK wt v1 in NIH-3T3 cells (Q9UM73 with tags, fused parts or gaps): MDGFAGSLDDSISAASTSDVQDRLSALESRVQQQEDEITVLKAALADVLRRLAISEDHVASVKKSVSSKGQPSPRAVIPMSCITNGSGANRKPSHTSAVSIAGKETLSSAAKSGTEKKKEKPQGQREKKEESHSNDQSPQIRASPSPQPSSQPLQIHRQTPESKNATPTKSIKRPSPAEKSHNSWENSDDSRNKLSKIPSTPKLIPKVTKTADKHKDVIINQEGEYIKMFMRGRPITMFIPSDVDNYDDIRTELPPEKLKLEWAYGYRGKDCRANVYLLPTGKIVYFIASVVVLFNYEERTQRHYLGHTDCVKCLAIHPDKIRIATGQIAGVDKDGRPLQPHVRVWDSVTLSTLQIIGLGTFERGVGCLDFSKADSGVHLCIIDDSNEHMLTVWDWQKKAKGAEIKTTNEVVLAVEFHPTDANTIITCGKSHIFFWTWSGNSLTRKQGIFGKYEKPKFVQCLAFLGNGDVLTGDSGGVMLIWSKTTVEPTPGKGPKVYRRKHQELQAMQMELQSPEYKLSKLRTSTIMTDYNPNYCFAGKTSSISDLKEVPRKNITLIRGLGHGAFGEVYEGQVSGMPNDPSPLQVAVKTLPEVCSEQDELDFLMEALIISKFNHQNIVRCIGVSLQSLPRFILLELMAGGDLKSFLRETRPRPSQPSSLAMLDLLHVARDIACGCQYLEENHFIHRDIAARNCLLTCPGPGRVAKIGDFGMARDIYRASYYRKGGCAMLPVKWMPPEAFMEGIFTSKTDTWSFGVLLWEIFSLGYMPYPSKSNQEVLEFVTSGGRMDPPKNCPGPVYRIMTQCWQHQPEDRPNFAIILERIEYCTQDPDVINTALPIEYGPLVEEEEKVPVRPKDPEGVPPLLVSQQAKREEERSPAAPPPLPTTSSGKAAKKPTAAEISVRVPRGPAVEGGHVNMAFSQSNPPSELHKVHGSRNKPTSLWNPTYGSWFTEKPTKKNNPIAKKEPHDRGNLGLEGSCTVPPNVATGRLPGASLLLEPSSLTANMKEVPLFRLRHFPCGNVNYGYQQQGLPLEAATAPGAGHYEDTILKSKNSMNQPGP

| SMILES | IC50 [1] [nM] | Ki [2] [nM] |
| --- | --- | --- |
| Cc1c(-c2cnc(N)c(O[C@H](C)c3cc(F)ccc3-n3nccn3)c2)cnn1C1CCNCC1 [Example 125, 3-{(1R)-1-[5-fluoro-2-(2H-1,2,3-triazol-2-yl)phenyl]ethoxy}-5-[5-methyl-1-(piperidin-4-yl)-1H-pyrazol-4-yl]pyridin-2-amine] | 3.7 | < 0.2 |
| COc1ccc(-c2cnc(N)c(O[C@H](C)c3cc(F)ccc3-n3nccn3)c2)cc1S(N)(=O)=O [Example 144, 5-(6-amino-5-{(1R)-1-[5-fluoro-2-(2H-1,2,3-triazol-2-yl)phenyl]ethoxy}pyridin-3-yl)-2-methoxybenzenesulfonamide] | 2.45 | < 0.2 |
| C[C@@H](Oc1cc(-c2cnc(CO)s2)cnc1N)c1cc(F)ccc1-n1nccn1 [Example 106, [5-(6-amino-5-{(1R)-1-[5-fluoro-2-(2H-1,2,3-triazol-2-yl)phenyl]ethoxy}pyridin-3-yl)-1,3-thiazol-2-yl]methanol] | 21.5 | 0.68 |
| Cc1nn(CC#N)c(C)c1-c1cnc(N)c(O[C@H](C)c2cc(F)ccc2-n2nccn2)c1 [Example 84, [4-(6-amino-5-{(1R)-1-[5-fluoro-2-(2H-1,2,3-triazol-2-yl)phenyl]ethoxy}pyridin-3-yl)-3,5-dimethyl-1H-pyrazol-1-yl]acetonitrile] | 13.2 | < 0.2 |
| C[C@@H](Oc1cc(-c2cnc(CO)n2C)cnc1N)c1cc(F)ccc1-n1nccn1 [Example 97, [5-(6-amino-5-{(1R)-1-[5-fluoro-2-(2H-1,2,3-triazol-2-yl)phenyl]ethoxy}pyridin-3-yl)-1-methyl-1H-imidazol-2-yl]methanol] | 41.3 | 0.327 |
| C[C@@H](Oc1cc(-c2cnn(C3CCNCC3)c2)cnc1N)c1cc(F)ccc1-n1nccn1 [Example 80, 3-{(1R)-1-[5-fluoro-2-(2H-1,2,3-triazol-2-yl)phenyl]ethoxy}-5-[1-(piperidin-4-yl)-1H-pyrazol-4-yl]pyridin-2-amine] | 6.58 | < 0.2 |
| C[C@@H](Oc1nc(-c2cnn(C3CCNCC3)c2)cnc1N)c1cc(F)ccc1-n1nccn1 [Example 71, 3-{(1R)-1-[5-fluoro-2-(2H-1,2,3-triazol-2-yl)phenyl]ethoxy}-5-[1-(piperidin-4-yl)-1H-pyrazol-4-yl]pyrazin-2-amine] | 30.3 | < 0.2 |
| C[C@@H](Oc1cc(-c2ccc(C(C)(C)O)c(S(C)(=O)=O)c2)cnc1N)c1cc(F)ccc1-n1nccn1 [Example 111, 2-[4-(6-amino-5-{(1R)-1-[5-fluoro-2-(2H-1,2,3-triazol-2-yl)phenyl]ethoxy}pyridin-3-yl)-2-(methylsulfonyl)phenyl]propan-2-ol] | 0.622 | < 0.2 |
| C[C@@H](N)c1ccc(-c2cnc(N)c(O[C@H](C)c3cc(F)ccc3-n3nccn3)c2)cc1 [Example 88, 5-{4-[(1R)-1-aminoethyl]phenyl}-3-{(1R)-1-[5-fluoro-2-(2H-1,2,3-triazol-2-yl)phenyl]ethoxy}-pyridin-2-amine] | 2.61 | < 0.2 |
| COc1ccc(F)cc1C(C)Oc1cc(-c2sc(CO)nc2C)cnc1N (stereo not shown) [Example 137, (5-{6-amino-5-[1-(5-fluoro-2-methoxyphenyl)ethoxy]pyridin-3-yl}-4-methyl-1,3-thiazol-2-yl)methanol] | 2.59 | 0.398 |
| C[C@@H](Oc1cc(-c2cnn([C@H]3CCCNC3)c2)cnc1N)c1cc(F)ccc1-n1nccn1 [Example 98, 3-{(1R)-1-[5-fluoro-2-(2H-1,2,3-triazol-2-yl)phenyl]ethoxy}-5-[1-(piperidin-3-yl)-1H-pyrazol-4-yl]pyridin-2-amine] | 10.8 | < 0.2 |
| C[C@@H](Oc1cc(-c2cnc3c(c2)C(C)(C)C(=O)N3)cnc1N)c1cc(F)ccc1-n1nccn1 [Example 75, 5-(6-amino-5-{(1R)-1-[5-fluoro-2-(2H-1,2,3-triazol-2-yl)phenyl]ethoxy}pyridin-3-yl)-3,3-dimethyl-1,3-dihydro-2H-pyrrolo[2,3-b]pyridin-2-one] | 24.6 | 0.341 |
| Cc1nn(CC(O)CO)c(C)c1-c1cnc(N)c(O[C@H](C)c2cc(F)ccc2-n2nccn2)c1 (stereo partly drawn) [Example 91, 3-[4-(6-amino-5-{(1R)-1-[5-fluoro-2-(2H-1,2,3-triazol-2-yl)phenyl]ethoxy}pyridin-3-yl)-3,5-dimethyl-1H-pyrazol-1-yl]propane-1,2-diol] | 0.793 | < 0.2 |
| CC(O)c1ncc(-c2cnc(N)c(O[C@H](C)c3cc(F)ccc3-n3nccn3)c2)s1 (stereo partly drawn) [Example 94, 1-[5-(6-amino-5-{(1R)-1-[5-fluoro-2-(2H-1,2,3-triazol-2-yl)phenyl]ethoxy}pyridin-3-yl)-1,3-thiazol-2-yl]ethanol] | 22.1 | < 0.49 |
| C[C@@H](Oc1cc(-c2ccc3c(c2)CCS3(=O)=O)cnc1N)c1cc(F)ccc1-n1nccn1 [Example 99, 5-(1,1-dioxido-2,3-dihydro-1-benzothiophen-5-yl)-3-{(1R)-1-[5-fluoro-2-(2H-1,2,3-triazol-2-yl)phenyl]ethoxy}pyridin-2-amine] | 13.2 | 1.1 |
| C[C@@H](Oc1cc(-c2ccc3c(c2)S(=O)(=O)CC3O)cnc1N)c1cc(F)ccc1-n1nccn1 (stereo partly drawn) [Example 110, 6-(6-amino-5-{(1R)-1-[5-fluoro-2-(2H-1,2,3-triazol-2-yl)pheny]ethoxy}pyridin-3-yl)-2,3-dihydro-1-benzothiophene-3-ol 1,1-dioxide] | 34.4 | 0.47 |
| C[C@@H](Oc1cc(-c2ccnc(N3CCOCC3)c2F)cnc1N)c1cc(F)ccc1-n1nccn1 [Example 131, 3′-fluoro-5-{(1R)-1-[5-fluoro-2-(2H-1,2,3-triazol-2-yl)phenyl]ethoxy}-2′-(morpholin-4-yl)-3,4′-bipyridin-6-amine] | 17.6 | 0.638 |
| C[C@@H](Oc1cc(-c2cnc(CS(C)(=O)=O)s2)cnc1N)c1cc(F)ccc1-n1nccn1 [Example 109, 3-{(1R)-1-[5-fluoro-2-(2H-1,2,3-triazol-2-yl)phenyl]ethoxy}-5-{2-[(methylsulfonyl)methyl]-1,3-thiazol-5-yl}pyridin-2-amine] | 9.15 | 0.58 |
| Cc1nc(C(C)O)sc1-c1cnc(N)c(O[C@H](C)c2cc(F)ccc2-n2nccn2)c1 (stereo partly drawn) [Example 96, 1-[5-(6-amino-5-{(1R)-1-[5-fluoro-2-(2H-1,2,3-triazol-2-yl)phenyl]ethoxy}pyridin-3-yl)-4-methyl-1,3-thiazol-2-yl]ethanol] | 17.1 | < 0.2 |
| C[C@@H](Oc1cc(-c2cccc(P(C)(C)=O)c2)cnc1N)c1cc(F)ccc1-n1nccn1 [Example 112, 5-[3-(dimethylphosphoryl)phenyl]-3-{(1R)-1-[5-fluoro-2-(2H-1,2,3-triazol-2-yl)phenyl]ethoxy}pyridin-2-amine] | 38.1 | 0.203 |
| Cc1ccc(-c2cnc(N)c(O[C@H](C)c3cc(F)ccc3-n3nccn3)c2)cn1 [Example 117, 5-{(1R)-1-[5-fluoro-2-(2H-1,2,3-triazol-2-yl)phenyl]ethoxy}-6′-methyl-3,3′-bipyridin-6-amine] | 10.3 | 0.77 |
| CCc1nc(CO)sc1-c1cnc(N)c(O[C@H](C)c2cc(F)ccc2-n2nccn2)c1 [Example 108, [5-(6-amino-5-{(1R)-1-[5-fluoro-2-(2H-1,2,3-triazol-2-yl)phenyl]ethoxy}pyridin-3-yl)-4-ethyl-1,3-thiazol-2-yl]methanol] | 9.38 | < 0.2 |
| Cc1n[nH]c(C)c1-c1cnc(N)c(O[C@H](C)c2cc(F)ccc2F)c1 [Example 48, 3-[(1R)-(2,5-difluorophenyl)-ethoxy]-5-(3,5-dimethyl-1H-pyrazol-4-yl)pyridin-2-amine] | – | 1.56 |
| C[C@@H](Oc1cc(-c2ccc3c(c2)CNC3=O)cnc1N)c1cc(F)ccc1-n1nccn1 [Example 89, 5-(6-amino-5-{(1R)-1-[5-fluoro-2-(2H-1,2,3-triazol-2-yl)phenyl]ethoxy}pyridin-3-yl)-2,3-dihydro-1H-isoindol-1-one] | 43.6 | 0.22 |
| C[C@@H](Oc1cc(-c2cnn(C3CCN(C(=O)CN(C)C)CC3)c2)cnc1N)c1cc(F)ccc1-n1nccn1 [Example 128, 1-{4-[4-(6-amino-5-{(1R)-1-[5-fluoro-2-(2H-1,2,3-triazol-2-yl)phenyl]ethoxy}pyridin-3-yl)-1H-pyrazol-1-yl]piperidin-1-yl}-2-(dimethylamino)ethanone] | 9.8 | < 0.2 |
| Cc1nc(CO)sc1-c1cnc(N)c(O[C@H](C)c2cc(F)ccc2-n2nccn2)c1 [Example 107, [5-(6-amino-5-{(1R)-1-[5-fluoro-2-(2H-1,2,3-triazol-2-yl)phenyl]ethoxy}pyridin-3-yl)-4-methyl-1,3-thiazol-2-yl]methanol] | 9.92 | < 0.2 |
| C[C@@H](Oc1cc(-c2ccnc(N3CCN(C)CC3)c2)cnc1N)c1cc(F)ccc1-n1nccn1 [Example 73, 5-{(1R)-1-[5-fluoro-2-(2H-1,2,3-triazol-2-yl)phenyl]ethoxy}-2′-(4-methylpiperazin-1-yl)-3,4′-bipyridin-6-amine] | 6.73 | < 0.2 |
| C[C@@H](Oc1cc(-c2cnn(C3CCNCC3F)c2)cnc1N)c1cc(F)ccc1-n1nccn1 (stereo partly drawn) [Example 74, 5-[1-(3-fluoropiperidin-4-yl)-1H-pyrazol-4-yl]-3-{(1R)-1-[5-fluoro-2-(2H-1,2,3-triazol-2-yl)phenyl]ethoxy} pyridin-2-amine] | 6.77 | < 0.2 |
| C[C@@H](Oc1cc(-c2ccc(OC3CCNCC3)nc2)cnc1N)c1cc(F)ccc1-n1nccn1 [Example 122, 5-{(1R)-1-[5-fluoro-2-(2H-1,2,3-triazol-2-yl)phenyl]ethoxy}-6′-(piperidin-4-yloxy)-3,3′-bipyridin-6-amine] | 1.15 | < 0.2 |
| COCc1ccc(-c2cnc(N)c(OC(C)c3cc(F)ccc3OC)c2)cc1S(C)(=O)=O (stereo not shown) [Example 135, 3-[1-(5-fluoro-2-methoxyphenyl)ethoxy]-5-[4-(methoxymethyl)-3-(methylsulfonyl)phenyl]pyridin-2-amine] | 4.15 | – |
